Measurements as given in ChEMBL document CHEMBL1201862, “PubChem BioAssay data set” (2004).
The source made the active and inactive calls.

Experiments:
Format in all cases: functional
[1] = molecular target: ALK tyrosine kinase receptor (Homo sapiens, UniProt Q9UM73);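 also: ALK tested as one member of a kinase panel screen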
[2] = molecular target: Non-receptor tyrosine-protein kinase TYK2 (Homo sapiens, UniProt P29597)
[3] = molecular target: Tyrosine-protein kinase JAK3 (Homo sapiens, UniProt P52333)
[4] = molecular target: Protein kinase C zeta type (Homo sapiens, UniProt Q05513);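 also: measured as one member of a broad kinase profiling panel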
[5] = molecular target: RAC-gamma serine/threonine-protein kinase (Homo sapiens, UniProt Q9Y243)
[6] = molecular target: Lymphokine-activated killer T-cell-originated protein kinase (Homo sapiens, UniProt Q96KB5);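 also: value comes from a kinase panel screen in which TOPK was one of the panel members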
[7] = molecular target: Tyrosine-protein kinase SYK (Homo sapiens, UniProt P43405)
[8] = molecular target: Serine/threonine-protein kinase PLK1 (Homo sapiens, UniProt P53350);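 also: PLK1 measured as one member of a kinome-wide profiling panel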
[9] = molecular target: cAMP-dependent protein kinase catalytic subunit alpha (Homo sapiens, UniProt P17612)
[10] = molecular target: Casein kinase I isoform alpha (Homo sapiens, UniProt P48729)
[11] = molecular target: Serine/threonine-protein kinase Nek4 (Homo sapiens, UniProt P51957)
[12] = molecular target: Serine/threonine-protein kinase D2 (Homo sapiens, UniProt Q9BZL6);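 also: measured against PRKD2 as one member of a kinome-wide kinase profiling panel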
Misshapen-like kinase 1 = Misshapen-like kinase 1 (Homo sapiens, UniProt Q8N4C8);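 also: kinome panel screen with MINK as the panel member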
[13] = molecular target: G protein-coupled receptor kinase 5 (Homo sapiens, UniProt P34947); test: Navigating the Kinome. Panel member name: GPRK5
[14] = molecular target: Glycogen synthase kinase-3 alpha (Homo sapiens, UniProt P49840);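 also: GSK3A result taken from a broad kinome-wide kinase panel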
[15] = molecular target: Serine/threonine-protein kinase 17A (Homo sapiens, UniProt Q9UEE5)
[16] = molecular target: Serine/threonine-protein kinase PLK4 (Homo sapiens, UniProt O00444);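 also: PLK4 measured as one member of a kinome-wide kinase profiling panel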
[17] = molecular target: Ribosomal protein S6 kinase beta-1 (Homo sapiens, UniProt P23443);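 also: measured as one member of a kinome-wide profiling panel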
[18] = molecular target: Calcium/calmodulin-dependent protein kinase type II subunit delta (Homo sapiens, UniProt Q13557)
[19] = molecular target: Serine/threonine-protein kinase PAK 4 (Homo sapiens, UniProt O96013);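 also: value obtained within a kinome profiling panel in which PAK4 was one of the panel members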
[20] = molecular target: Cyclin-dependent kinase 2 (Homo sapiens, UniProt P24941);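 also: CDK2 measured as one member of a broad kinome profiling panel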
[21] = molecular target: RAC-alpha serine/threonine-protein kinase (Homo sapiens, UniProt P31749);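 also: AKT1 affinity measured as one member of a kinome-wide kinase profiling panel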
[22] = molecular target: T1, Interleukin-1 receptor-associated kinase 4 (Homo sapiens, UniProt Q9NWZ3)
T1 sequence (Q9NWZ3 whole entry): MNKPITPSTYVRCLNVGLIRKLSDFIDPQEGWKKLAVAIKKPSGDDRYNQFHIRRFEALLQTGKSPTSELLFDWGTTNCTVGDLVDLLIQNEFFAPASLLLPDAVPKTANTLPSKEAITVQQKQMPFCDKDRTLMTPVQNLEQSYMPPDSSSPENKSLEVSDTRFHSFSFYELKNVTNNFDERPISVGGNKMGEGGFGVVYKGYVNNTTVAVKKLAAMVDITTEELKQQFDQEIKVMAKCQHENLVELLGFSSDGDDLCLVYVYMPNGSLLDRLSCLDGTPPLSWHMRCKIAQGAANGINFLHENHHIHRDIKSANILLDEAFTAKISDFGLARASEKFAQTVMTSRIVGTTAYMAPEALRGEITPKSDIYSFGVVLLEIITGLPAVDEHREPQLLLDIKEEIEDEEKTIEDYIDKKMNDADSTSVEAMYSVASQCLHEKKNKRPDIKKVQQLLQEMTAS

[23] = molecular target: Mitogen-activated protein kinase kinase kinase kinase 2 (Homo sapiens, UniProt Q12851);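 also: measured as one member of a kinome-wide kinase panel, with MAP4K2 as the panel entry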
[24] = molecular target: Serine/threonine-protein kinase pim-1 (Homo sapiens, UniProt P11309)
Insulin receptor = Insulin receptor (Homo sapiens, UniProt P06213);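 also: insulin receptor kinase tested as one member of a kinome-wide kinase panel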
[25] = molecular target: Serine/threonine-protein kinase TAO1 (Homo sapiens, UniProt Q7L7X3)
[26] = molecular target: Mitogen-activated protein kinase 13 (Homo sapiens, UniProt O15264)
[27] = molecular target: Calcium/calmodulin-dependent protein kinase type II subunit alpha (Homo sapiens, UniProt Q9UQM7); test: Navigating the Kinome. Panel member name: CAMK2A
[28] = molecular target: Cyclin-dependent kinase 5 (Homo sapiens, UniProt Q00535);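 also: CDK5 measured as one member of a kinase profiling panel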
[29] = molecular target: Calcium/calmodulin-dependent protein kinase type II subunit gamma (Homo sapiens, UniProt Q13555)
[30] = molecular target: Serine/threonine-protein kinase D3 (Homo sapiens, UniProt O94806);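 also: determined within a kinase panel screen, with PRKCN as the panel member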
[31] = molecular target: STE20-like serine/threonine-protein kinase (Homo sapiens, UniProt Q9H2G2)
[32] = molecular target: Serine/threonine-protein kinase Chk1 (Homo sapiens, UniProt O14757);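 also: measured as one member of a kinome-wide kinase profiling panel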
Activin receptor type-1 = Activin receptor type-1 (Homo sapiens, UniProt Q04771); test: Navigating the Kinome. Panel member name: ACVR1
[33] = molecular target: Homeodomain-interacting protein kinase 4 (Homo sapiens, UniProt Q8NE63)
[34] = molecular target: Cyclin-dependent kinase 7 (Homo sapiens, UniProt P50613);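 also: value comes from a kinome-wide kinase profiling panel in which CDK7 is one member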
[35] = molecular target: Serine/threonine-protein kinase N2 (Homo sapiens, UniProt Q16513)
[36] = molecular target: Serine/threonine-protein kinase BRSK1 (Homo sapiens, UniProt Q8TDC3);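 also: measured within a kinome-wide kinase panel, with the target listed as KIAA1811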
[37] = molecular target: Serine/threonine-protein kinase Nek2 (Homo sapiens, UniProt P51955)

Measured: Ki

Mitogen-activated protein kinase 13, sequence (O15264 whole entry): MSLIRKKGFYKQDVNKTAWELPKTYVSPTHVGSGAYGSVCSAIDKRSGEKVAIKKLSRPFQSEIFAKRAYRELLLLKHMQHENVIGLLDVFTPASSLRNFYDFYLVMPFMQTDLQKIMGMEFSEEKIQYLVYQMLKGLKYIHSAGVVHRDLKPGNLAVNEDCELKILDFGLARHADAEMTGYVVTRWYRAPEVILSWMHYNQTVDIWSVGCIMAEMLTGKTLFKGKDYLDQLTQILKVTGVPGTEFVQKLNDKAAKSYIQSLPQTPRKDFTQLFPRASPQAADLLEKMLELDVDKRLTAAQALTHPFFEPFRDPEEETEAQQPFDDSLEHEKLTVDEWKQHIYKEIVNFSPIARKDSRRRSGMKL
Serine/threonine-protein kinase PAK 4, sequence (O96013 whole entry): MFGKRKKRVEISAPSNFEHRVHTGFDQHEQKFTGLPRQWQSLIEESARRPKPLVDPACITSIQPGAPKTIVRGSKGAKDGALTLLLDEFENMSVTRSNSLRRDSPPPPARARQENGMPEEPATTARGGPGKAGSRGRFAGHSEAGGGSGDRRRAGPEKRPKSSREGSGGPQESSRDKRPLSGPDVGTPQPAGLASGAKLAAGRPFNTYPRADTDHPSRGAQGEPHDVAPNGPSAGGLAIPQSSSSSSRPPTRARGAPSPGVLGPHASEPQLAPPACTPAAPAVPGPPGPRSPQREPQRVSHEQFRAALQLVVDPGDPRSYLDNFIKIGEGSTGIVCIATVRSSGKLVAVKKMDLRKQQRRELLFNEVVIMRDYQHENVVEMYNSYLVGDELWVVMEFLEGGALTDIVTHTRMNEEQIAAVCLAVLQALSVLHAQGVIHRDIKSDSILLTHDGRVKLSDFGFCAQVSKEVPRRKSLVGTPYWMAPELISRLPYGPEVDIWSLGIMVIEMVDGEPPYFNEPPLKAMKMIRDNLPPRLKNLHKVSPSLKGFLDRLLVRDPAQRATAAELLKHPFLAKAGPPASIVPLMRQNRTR
STE20-like serine/threonine-protein kinase, sequence (Q9H2G2 whole entry): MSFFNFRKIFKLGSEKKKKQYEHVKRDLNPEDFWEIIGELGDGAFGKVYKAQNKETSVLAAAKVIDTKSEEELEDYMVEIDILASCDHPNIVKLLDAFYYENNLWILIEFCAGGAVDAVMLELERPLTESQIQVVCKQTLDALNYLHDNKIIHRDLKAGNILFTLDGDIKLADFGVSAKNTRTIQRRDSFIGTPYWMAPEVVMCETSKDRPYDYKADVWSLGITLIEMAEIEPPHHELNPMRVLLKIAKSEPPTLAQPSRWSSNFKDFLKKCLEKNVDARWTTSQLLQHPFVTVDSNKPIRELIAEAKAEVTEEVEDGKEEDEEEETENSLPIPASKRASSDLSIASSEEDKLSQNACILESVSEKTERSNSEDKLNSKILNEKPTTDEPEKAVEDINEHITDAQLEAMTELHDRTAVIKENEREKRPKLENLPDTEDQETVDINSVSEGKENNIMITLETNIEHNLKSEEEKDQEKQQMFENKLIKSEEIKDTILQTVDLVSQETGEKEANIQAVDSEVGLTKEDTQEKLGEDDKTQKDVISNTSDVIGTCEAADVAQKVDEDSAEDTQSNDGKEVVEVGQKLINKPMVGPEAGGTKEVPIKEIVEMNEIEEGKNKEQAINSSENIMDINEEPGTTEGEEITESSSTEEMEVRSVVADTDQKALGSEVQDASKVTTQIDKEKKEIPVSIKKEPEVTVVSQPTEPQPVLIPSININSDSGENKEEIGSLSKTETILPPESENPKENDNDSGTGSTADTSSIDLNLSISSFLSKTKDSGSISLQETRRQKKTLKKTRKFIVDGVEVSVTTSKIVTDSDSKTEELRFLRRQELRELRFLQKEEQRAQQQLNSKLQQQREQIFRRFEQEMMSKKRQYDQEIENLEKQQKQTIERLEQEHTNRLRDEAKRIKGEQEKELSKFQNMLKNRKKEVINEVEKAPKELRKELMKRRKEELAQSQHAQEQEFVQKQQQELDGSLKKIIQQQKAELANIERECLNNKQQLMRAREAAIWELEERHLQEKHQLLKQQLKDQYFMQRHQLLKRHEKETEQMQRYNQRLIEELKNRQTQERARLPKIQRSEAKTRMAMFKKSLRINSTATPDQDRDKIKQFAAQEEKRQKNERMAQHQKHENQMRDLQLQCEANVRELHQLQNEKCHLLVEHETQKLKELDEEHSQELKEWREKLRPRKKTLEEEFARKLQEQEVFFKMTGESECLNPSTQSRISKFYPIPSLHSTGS
Serine/threonine-protein kinase 17A, sequence (Q9UEE5 whole entry): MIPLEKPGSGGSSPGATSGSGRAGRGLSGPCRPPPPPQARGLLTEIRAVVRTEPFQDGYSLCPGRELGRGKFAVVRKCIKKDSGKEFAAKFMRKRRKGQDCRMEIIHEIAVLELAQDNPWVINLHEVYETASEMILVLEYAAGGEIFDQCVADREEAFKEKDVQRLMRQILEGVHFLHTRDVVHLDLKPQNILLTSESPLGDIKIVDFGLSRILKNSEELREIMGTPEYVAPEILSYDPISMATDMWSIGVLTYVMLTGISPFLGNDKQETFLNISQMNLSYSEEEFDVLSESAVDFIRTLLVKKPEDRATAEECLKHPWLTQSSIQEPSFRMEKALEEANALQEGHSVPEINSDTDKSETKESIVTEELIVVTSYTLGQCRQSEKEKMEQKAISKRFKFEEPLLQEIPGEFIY
Calcium/calmodulin-dependent protein kinase type II subunit delta, sequence (Q13557 whole entry): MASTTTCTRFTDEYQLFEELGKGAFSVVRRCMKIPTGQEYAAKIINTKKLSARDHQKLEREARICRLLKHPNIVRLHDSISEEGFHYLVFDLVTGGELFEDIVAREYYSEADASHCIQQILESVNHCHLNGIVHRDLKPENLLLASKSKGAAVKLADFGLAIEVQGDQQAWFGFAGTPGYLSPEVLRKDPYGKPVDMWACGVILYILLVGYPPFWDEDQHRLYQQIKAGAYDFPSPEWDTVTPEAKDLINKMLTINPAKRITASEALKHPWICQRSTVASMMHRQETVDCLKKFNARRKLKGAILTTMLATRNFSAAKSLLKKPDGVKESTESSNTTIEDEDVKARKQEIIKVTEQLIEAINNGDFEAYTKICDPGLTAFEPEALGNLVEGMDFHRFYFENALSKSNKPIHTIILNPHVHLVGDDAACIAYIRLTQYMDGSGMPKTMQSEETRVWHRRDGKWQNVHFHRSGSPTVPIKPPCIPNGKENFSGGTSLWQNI
Serine/threonine-protein kinase PLK4, sequence (O00444 whole entry): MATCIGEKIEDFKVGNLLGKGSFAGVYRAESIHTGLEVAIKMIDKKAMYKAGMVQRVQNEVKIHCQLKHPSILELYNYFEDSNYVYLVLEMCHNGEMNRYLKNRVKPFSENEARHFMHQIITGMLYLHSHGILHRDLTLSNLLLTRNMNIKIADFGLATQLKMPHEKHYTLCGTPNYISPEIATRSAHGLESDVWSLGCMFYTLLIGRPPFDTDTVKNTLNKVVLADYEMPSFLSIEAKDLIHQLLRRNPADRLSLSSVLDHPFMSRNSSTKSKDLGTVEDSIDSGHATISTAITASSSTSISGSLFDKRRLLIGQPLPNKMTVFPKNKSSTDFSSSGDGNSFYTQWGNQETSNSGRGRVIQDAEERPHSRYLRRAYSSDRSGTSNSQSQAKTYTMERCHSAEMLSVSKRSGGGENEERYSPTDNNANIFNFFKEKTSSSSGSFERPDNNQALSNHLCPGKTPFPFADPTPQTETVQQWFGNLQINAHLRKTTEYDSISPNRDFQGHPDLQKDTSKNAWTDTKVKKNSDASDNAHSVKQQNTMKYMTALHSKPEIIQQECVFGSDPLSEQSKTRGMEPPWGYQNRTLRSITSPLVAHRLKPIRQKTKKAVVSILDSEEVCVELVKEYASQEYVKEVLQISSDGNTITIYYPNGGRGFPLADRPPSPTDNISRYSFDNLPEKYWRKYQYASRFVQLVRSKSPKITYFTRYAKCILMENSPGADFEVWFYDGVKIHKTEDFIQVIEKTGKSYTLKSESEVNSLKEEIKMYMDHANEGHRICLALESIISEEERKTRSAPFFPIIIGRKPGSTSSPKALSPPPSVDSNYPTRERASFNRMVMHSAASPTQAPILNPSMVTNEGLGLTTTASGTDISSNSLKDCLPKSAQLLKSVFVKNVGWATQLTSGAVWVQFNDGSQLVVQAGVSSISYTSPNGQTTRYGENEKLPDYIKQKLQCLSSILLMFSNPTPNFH
Glycogen synthase kinase-3 alpha, sequence (P49840 whole entry): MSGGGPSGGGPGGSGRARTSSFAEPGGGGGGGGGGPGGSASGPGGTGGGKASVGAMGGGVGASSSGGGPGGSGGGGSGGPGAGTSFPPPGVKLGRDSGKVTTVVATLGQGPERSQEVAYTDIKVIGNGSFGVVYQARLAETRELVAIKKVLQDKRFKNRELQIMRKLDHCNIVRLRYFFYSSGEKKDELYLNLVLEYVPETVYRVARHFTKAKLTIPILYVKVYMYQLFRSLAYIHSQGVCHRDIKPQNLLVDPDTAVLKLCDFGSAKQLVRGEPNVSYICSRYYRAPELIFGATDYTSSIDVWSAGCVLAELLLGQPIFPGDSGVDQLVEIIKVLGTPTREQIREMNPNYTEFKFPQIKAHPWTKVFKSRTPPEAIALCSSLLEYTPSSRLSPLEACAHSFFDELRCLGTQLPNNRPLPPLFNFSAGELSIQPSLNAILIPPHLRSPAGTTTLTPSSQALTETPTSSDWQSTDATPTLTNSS
Serine/threonine-protein kinase Chk1, sequence (O14757 whole entry): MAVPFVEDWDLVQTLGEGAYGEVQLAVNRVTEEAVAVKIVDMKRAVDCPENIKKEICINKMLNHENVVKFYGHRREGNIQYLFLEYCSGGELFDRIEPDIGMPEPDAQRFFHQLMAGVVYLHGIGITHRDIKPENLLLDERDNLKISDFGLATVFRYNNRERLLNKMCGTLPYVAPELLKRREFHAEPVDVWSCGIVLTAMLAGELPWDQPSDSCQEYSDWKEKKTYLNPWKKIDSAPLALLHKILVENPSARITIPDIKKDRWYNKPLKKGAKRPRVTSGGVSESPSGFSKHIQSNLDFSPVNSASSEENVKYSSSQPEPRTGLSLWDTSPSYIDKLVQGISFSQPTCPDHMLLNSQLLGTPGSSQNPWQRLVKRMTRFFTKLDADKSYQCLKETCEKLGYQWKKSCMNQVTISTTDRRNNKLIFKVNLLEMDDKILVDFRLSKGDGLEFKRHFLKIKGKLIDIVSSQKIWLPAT

NNc1cc(N2CCOCC2)nc(OCCc2ccccn2)n1
active: [2] 1.58 µM | [7] 0.398 µM | [22] 2.51 µM | [36] 7.94 µM
inactive: [1] > 6.31 µM | [3] > 5.01 µM | [4] > 7.94 µM | [5] > 10 µM | [6] > 10 µM | [8] > 7.94 µM | [9] > 3.98 µM | [10] > 5.01 µM | [11] > 6.31 µM | [12] > 10 µM | Misshapen-like kinase 1 > 7.94 µM | [13] > 3.98 µM | [14] > 7.94 µM | [15] > 3.98 µM | [16] > 3.98 µM | [17] > 6.31 µM | [18] > 6.31 µM | [19] > 5.01 µM | [20] > 7.94 µM | [21] > 7.94 µM | [23] > 5.01 µM | [24] > 6.31 µM | Insulin receptor > 5.01 µM | [25] > 5.01 µM | [26] > 7.94 µM | [27] > 7.94 µM | [28] > 6.31 µM | [29] > 6.31 µM | [30] > 6.31 µM | [31] > 10 µM | [32] > 7.94 µM | Activin receptor type-1 > 3.98 µM | [33] > 7.94 µM | [34] > 3.98 µM | [35] > 7.94 µM | [37] > 10 µM
